Earlier results on one molecule are cited in patent US20210299068A1, “ANTIMICROBIAL COMPOSITIONS COMPRISING CHLORHEXIDINE” (3M INNOVATIVE PROPERTIES COMPANY, priority 2018, published 2021).

For this data set the following is noted: at neutral pH.

`O=C([O-])CN(CCO)CCN(CC(=O)[O-])CC(=O)[O-].[Na+].[Na+].[Na+]` [HEDTA.Na3, N-(2-Hydroxyethyl)ethylenediaminetriacetic acid trisodium salt]: the “Formation constant for the complex with calcium” value is on record as 10^6.
